According to patent US20230077362A1 (CORTEVA AGRISCIENCE LLC, priority 2019, published 2023):
Read-outs that look alike come from different tables or passages of the source.

What was measured:
[1] = system: Beet Armyworm (Spodoptera exigua) ("BAW"), second instar larvae; assay: Bioassay on beet armyworm (BAW), 128-well diet tray assay; type: in vivo; conditions: for pest or weed control at 50 µg/cm2: Spodoptera exigua; for BAW rating: Table ABC, species BAW, C = not tested, D = no activity noticed
Procedure, shortened: (§1)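 Sealed trays, 25° C., 14:10 light:dark, 5–7 d. Per-well % mortality recorded, mean of eight wells reported.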

[2] = system: Cabbage Looper (Trichoplusia ni) ("CL"), second instar larvae; assay: Bioassay on cabbage looper (CL), 128-well diet tray assay; type: in vivo; conditions: for pest or weed control at 50 µg/cm2: Trichoplusia ni; for CL rating: Table ABC, species CL, C = not tested, D = no activity noticed
Procedure, shortened: as §1

[3] = read-out: BAW (Biological Results, rating)
[4] = read-out: CL (Biological Results, rating)

SMILES	pest or weed control at 50 µg/cm2 ([1]; read-out: BAW rating) [%]	pest or weed control at 50 µg/cm2 ([2]; read-out: CL rating) [%]	pest or weed control at 50 µg/cm2 [1, 3] [%]	pest or weed control at 50 µg/cm2 [2, 4] [%]	also measured
Cc1cc(-n2cnc(-c3ccc(OC(F)(F)F)cc3)n2)ccc1NC(=O)/N=C1\SCC(=O)N1c1cc(N(C)C)ccc1C(C)C [Compound J469, (Z)-1-(3-(5-(Dimethylamino)-2-isopropylphenyl)-4-oxothiazolidin-2-ylidene)-3-(2-methyl-4-(3-(4-(trifluoromethoxy)phenyl)-1H-1,2,4-triazol-1-yl)phenyl)urea]	50 to 100	50 to 100			
COC(C)c1ccc(C)cc1N1C(=O)CS/C1=N\C(=O)Nc1ccc(-c2ncn(-c3ccc(OC(F)(F)F)cc3)n2)cc1C(C)=O (centres unmarked) [Compound J397, (Z)-1-(2-Acetyl-4-(1-(4-(trifluoromethoxy)phenyl)-1H-1,2,4-triazol-3-yl)phenyl)-3-(3-(2-(1-methoxyethyl)-5-methylphenyl)-4-oxothiazolidin-2-ylidene)urea]	50 to 100	50 to 100			
CC(C)c1cc(F)c(N(C)C)cc1N1C(=O)CS/C1=N\C(=O)Nc1ccc(-c2cn(-c3ccc(S(F)(F)(F)(F)F)cc3)cn2)cc1F [Compound J604, (Z)-1-(3-(5-(Dimethylamino)-4-fluoro-2-isopropylphenyl)-4-oxothiazolidin-2-ylidene)-3-(2-fluoro-4-(1-(4-(pentafluoro-λ^6-sulfaneyl)phenyl)-1H-imidazol-4-yl)phenyl)urea]	50 to 100	50 to 100			
Cc1ccc(COCC(F)(F)F)c(N2C(=O)CS/C2=N\C(=O)Nc2ccc(-c3cn(-c4ccc(S(F)(F)(F)(F)F)cc4)cn3)cc2C)c1 [Compound J616, (Z)-1-(3-(5-Methyl-2-((2,2,2-trifluoroethoxy)methyl)phenyl)-4-oxothiazolidin-2-ylidene)-3-(2-methyl-4-(1-(4-(pentafluoro-λ^6-sulfaneyl)phenyl)-1H-imidazol-4-yl)phenyl)urea]	50 to 100	50 to 100			
Cc1ccc(COCC(F)(F)F)c(N2C(=O)CS/C2=N\C(=O)Nc2ccc(-c3ncn(-c4ccc(S(F)(F)(F)(F)F)cc4)n3)cc2F)c1 [Compound J422]					BAW rating [1]: A (50-100); CL rating [2]: A (50-100)
Cc1ccc(COCC(F)(F)Cl)c(N2C(=O)CS/C2=N\C(=O)Nc2ccc(-c3ncn(-c4ccc(S(F)(F)(F)(F)F)cc4)n3)cc2F)c1 [Compound J449]					BAW rating [1]: A (50-100); CL rating [2]: A (50-100)
COC(C)c1ccc(C)cc1N1C(=O)CS/C1=N\C(=O)Nc1ccc(-c2ncn(-c3ccc(OC(F)(F)F)cn3)n2)cc1C (centres unmarked) [Compound J240, (Z)-1-(3-(2-(1-Methoxyethyl)-5-methylphenyl)-4-oxothiazolidin-2-ylidene)-3-(2-methyl-4-(1-(5-(trifluoromethoxy)pyridin-2-yl)-1H-1,2,4-triazol-3-yl)phenyl)urea]			50 to 100	50 to 100	
Cc1ccc(COCC(F)(F)F)c(N2C(=O)CS/C2=N\C(=O)Nc2ccc(-c3ncn(-c4ccc(F)cc4)n3)cc2F)c1 [Compound J782, (Z)-1-(2-Fluoro-4-(1-(4-fluorophenyl)-1H-1,2,4-triazol-3-yl)phenyl)-3-(3-(5-methyl-2-((2,2,2-trifluoroethoxy)methyl)phenyl)-4-oxothiazolidin-2-ylidene)urea]	50 to 100	50 to 100			
Cc1cc(-c2ncn(-c3ccc(S(=O)(=O)C(F)(F)F)cc3)n2)ccc1NC(=O)/N=C1\SCC(=O)N1c1cc(C#N)ccc1OCCC(F)(F)F [Compound J376, (Z)-1-(3-(5-Cyano-2-(3,3,3-trifluoropropoxy)phenyl)-4-oxothiazolidin-2-ylidene)-3-(2-methyl-4-(1-(4-((trifluoromethyl)sulfonyl)phenyl)-1H-1,2,4-triazol-3-yl)phenyl)urea]	50 to 100	50 to 100			
Cc1ccc(C(C)C)c(N2C(=O)CS/C2=N\C(=O)Nc2ccc(-c3ncn(-c4ccc(OC(F)(F)F)cn4)n3)cc2C#N)c1 [Compound J259, (Z)-1-(2-Cyano-4-(1-(5-(trifluoromethoxy)pyridin-2-yl)-1H-1,2,4-triazol-3-yl)phenyl)-3-(3-(2-isopropyl-5-methylphenyl)-4-oxothiazolidin-2-ylidene)urea]			50 to 100	50 to 100	
CC(C)c1cc(F)c(N(C)C)cc1N1C(=O)CS/C1=N\C(=O)Nc1ccc(-c2ncn(-c3ccc(C(F)(F)F)cn3)n2)cc1F [Compound J352]					BAW (Biological Results, rating) ([1]; Beet Armyworm (Spodoptera exigua), C = Not Tested): A (50-100); CL (Biological Results, rating) ([2]; Cabbage Looper (Trichoplusia ni), C = Not Tested): A (50-100)
CN(C)c1ccc(C(F)(F)F)c(N2C(=O)CS/C2=N\C(=O)Nc2ccc(-c3ncn(-c4ccc(OC(F)(F)F)cn4)n3)cc2F)c1 [Compound J262, (Z)-1-(3-(5-(Dimethylamino)-2-(trifluoromethyl)phenyl)-4-oxothiazolidin-2-ylidene)-3-(2-fluoro-4-(1-(5-(trifluoromethoxy)pyridin-2-yl)-1H-1,2,4-triazol-3-yl)phenyl)urea]			50 to 100	50 to 100	
O=C(/N=C1\SCC(=O)N1c1ccccc1C(F)(F)F)Nc1ccc(-c2ncn(-c3ccc(OC(F)(F)F)cc3)n2)cc1 [Compound H10]			50 to 100	50 to 100	
Cc1ccc(C(C)C)c(N2C(=O)CS/C2=N\C(=O)Nc2ccc(-c3ncn(-c4ccc(OC(F)(F)F)cc4)n3)c(C)c2)c1 [Compound J23, (Z)-1-(3-(2-Isopropyl-5-methylphenyl)-4-oxothiazolidin-2-ylidene)-3-(3-methyl-4-(1-(4-(trifluoromethoxy)phenyl)-1H-1,2,4-triazol-3-yl)phenyl)urea]			50 to 100	50 to 100	
Cc1ccc(COCC(F)(F)F)c(N2C(=O)CS/C2=N\C(=O)Nc2ccc(-c3ccn(-c4ccc(C(F)(F)F)nn4)n3)cc2F)c1 [Compound J390]					BAW rating [1]: A (50-100); CL rating [2]: A (50-100)
Cc1ccc(COCC(Cl)Cl)c(N2C(=O)CS/C2=N\C(=O)Nc2ccc(-c3ncn(-c4ccc(S(F)(F)(F)(F)F)cc4)n3)cc2F)c1 [Compound J554]					BAW rating [1]: A (50-100); CL rating [2]: A (50-100)
CN(C)c1ccc(OCC(F)(F)F)c(N2C(=O)CS/C2=N\C(=O)Nc2ccc(-n3cnc(-c4ccc(C(F)(F)F)cc4)n3)cc2F)c1 [Compound J697, (Z)-1-(3-(5-(Dimethylamino)-2-(2,2,2-trifluoroethoxy)phenyl)-4-oxothiazolidin-2-ylidene)-3-(2-fluoro-4-(3-(4-(trifluoromethyl)phenyl)-1H-1,2,4-triazol-1-yl)phenyl)urea]	50 to 100	50 to 100			
Cc1ccc(C(C)C)c(N2C(=O)CS/C2=N\C(=O)Nc2ccc(-c3ncn(-c4ccc(OC(F)(F)F)cc4)n3)cc2C(C)C)c1 [Compound J99, (Z)-1-(2-Isopropyl-4-(1-(4-(trifluoromethoxy)phenyl)-1H-1,2,4-triazol-3-yl)phenyl)-3-(3-(2-isopropyl-5-methylphenyl)-4-oxothiazolidin-2-ylidene)urea]			50 to 100	50 to 100	
CCOc1ccc(-n2cnc(-c3ccc(NC(=O)/N=C4\SCC(=O)N4c4cc(C)ccc4COCC(F)(F)F)c(F)c3)n2)cc1 [Compound J625]					BAW rating [1]: A (50-100); CL rating [2]: A (50-100)
CCOCc1ccc(C)cc1N1C(=O)CS/C1=N\C(=O)Nc1ccc(-c2ncn(-c3ccc(OC(F)(F)F)cc3)n2)cc1Br [Compound J221, (Z)-1-(2-Bromo-4-(1-(4-(trifluoromethoxy)phenyl)-1H-1,2,4-triazol-3-yl)phenyl)-3-(3-(2-(ethoxymethyl)-5-methylphenyl)-4-oxothiazolidin-2-ylidene)urea]			50 to 100	50 to 100	
CCOCc1ccc(C)cc1N1C(=O)CS/C1=N\C(=O)Nc1ccc(-c2cn(-c3ccc(OC(F)(F)F)cc3)nn2)cc1 [Compound J493, (Z)-1-(3-(2-(Ethoxymethyl)-5-methylphenyl)-4-oxothiazolidin-2-ylidene)-3-(4-(1-(4-(trifluoromethoxy)phenyl)-1H-1,2,3-triazol-4-yl)phenyl)urea]	50 to 100	50 to 100			
CCOc1ccc(-n2cnc(-c3ccc(NC(=O)/N=C4\SCC(=O)N4c4cc(C)c(C)cc4COCC(F)(F)F)c(F)c3)n2)cc1 [Compound J620]					BAW rating [1]: A (50-100); CL rating [2]: A (50-100)
CCOc1ccc(C)cc1N1C(=O)CS/C1=N\C(=O)Nc1ccc(-c2ncn(-c3ccc(OC(F)(F)F)cc3)n2)cc1F [Compound J59, (Z)-1-(3-(2-Ethoxy-5-methylphenyl)-4-oxothiazolidin-2-ylidene)-3-(2-fluoro-4-(1-(4-(trifluoromethoxy)phenyl)-1H-1,2,4-triazol-3-yl)phenyl)urea]			50 to 100	50 to 100	
CC(C)c1ccc(N(C)C)cc1N1C(=O)CS/C1=N\C(=O)Nc1ccc(-c2ncn(-c3ccc(OC(F)(F)F)cc3)n2)cc1Cl [Compound J166, (Z)-1-(2-Chloro-4-(1-(4-(trifluoromethoxy)phenyl)-1H-1,2,4-triazol-3-yl)phenyl)-3-(3-(5-(dimethylamino)-2-isopropylphenyl)-4-oxothiazolidin-2-ylidene)urea]			50 to 100	50 to 100	
CCCc1ccc(N(C)C)cc1N1C(=O)CS/C1=N\C(=O)Nc1ccc(-c2ncn(-c3ccc(OC(F)(F)F)cn3)n2)cc1C(F)(F)F [Compound J278, (Z)-1-(3-(5-(Dimethylamino)-2-propylphenyl)-4-oxothiazolidin-2-ylidene)-3-(4-(1-(5-(trifluoromethoxy)pyridin-2-yl)-1H-1,2,4-triazol-3-yl)-2-(trifluoromethyl)phenyl)urea]			50 to 100	50 to 100	
